Assays:
TIP48/TIP49 complex = target: T1, TIP48/TIP49 complex (Homo sapiens, UniProt Q9Y230+Q9Y265); test: ATPase assay of TIP48/TIP49 complex (ADP-Glo); type: biochemical; conditions: concentration at which the ATPase activity was inhibited by 50%
T1 construct: made in house; host or cells: E. coli
How it was run: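 Recombinant human TIP48 and TIP49 expressed in E. coli (24.5 μg/mL final) were incubated 1.5 h at room temperature with compound (0.0007–200 μM, 2% DMSO) in Tris-HCl pH 7.5 buffer containing MgCl2 and ATP. ADP formed was detected by ADP-Glo luminescence; inhibition came from dose-response curves.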

[1] = tested on: human lymphoma cell line RAMOS cells; test: Cell growth inhibition test using RAMOS cell, ATP assay (CellTiter-Glo); type: cell-based; conditions: Homo sapiens, Ramos, 72 h, cultured 3 days, 50% growth inhibition concentration
How it was run: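 RAMOS cells seeded at 4000 cells/well with compound and cultured 3 days at 37° C, 5% CO2; viability by CellTiter-Glo luminescence. Growth rate T/C % = 100×[(B−C)/(A−C)] using day-0 and final readings; GI50 interpolated from the two concentrations bracketing 50% growth.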

T1 sequence (Q9Y230 whole entry): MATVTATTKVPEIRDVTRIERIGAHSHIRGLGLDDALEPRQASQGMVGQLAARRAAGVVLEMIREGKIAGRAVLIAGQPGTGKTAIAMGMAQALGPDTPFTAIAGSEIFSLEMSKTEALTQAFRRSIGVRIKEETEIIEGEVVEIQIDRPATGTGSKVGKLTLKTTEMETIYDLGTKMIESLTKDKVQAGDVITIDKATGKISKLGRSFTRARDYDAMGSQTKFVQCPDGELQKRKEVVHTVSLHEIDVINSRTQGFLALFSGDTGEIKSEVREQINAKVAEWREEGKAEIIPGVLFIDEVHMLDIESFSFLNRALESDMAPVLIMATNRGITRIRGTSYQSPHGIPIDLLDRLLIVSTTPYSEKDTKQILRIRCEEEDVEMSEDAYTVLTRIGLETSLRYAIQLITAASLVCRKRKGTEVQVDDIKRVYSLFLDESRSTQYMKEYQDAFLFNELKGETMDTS
T1 sequence (Q9Y265 whole entry): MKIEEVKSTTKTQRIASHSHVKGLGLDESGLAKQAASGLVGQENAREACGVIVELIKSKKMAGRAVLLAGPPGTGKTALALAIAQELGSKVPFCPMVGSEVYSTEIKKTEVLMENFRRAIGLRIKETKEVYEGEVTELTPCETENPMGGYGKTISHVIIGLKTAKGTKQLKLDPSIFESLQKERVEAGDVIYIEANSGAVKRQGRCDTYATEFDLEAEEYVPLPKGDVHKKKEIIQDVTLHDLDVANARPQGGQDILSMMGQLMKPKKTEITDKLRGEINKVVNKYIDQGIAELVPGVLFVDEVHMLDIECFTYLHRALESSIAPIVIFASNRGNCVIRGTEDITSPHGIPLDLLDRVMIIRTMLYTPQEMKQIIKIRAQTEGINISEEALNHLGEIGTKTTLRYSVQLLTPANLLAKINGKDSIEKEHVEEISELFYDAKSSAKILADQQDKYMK

Structure (SMILES) | IC50 (TIP48/TIP49 complex) | GI50 [1]
CCOc1ncc(Br)cc1C(=O)NCC(C)(C)CC(=O)Nc1c(C(C)CN(C)C)n(C)n(-c2ccccc2)c1=O (centres unmarked) [Example 74, 5-Bromo-N-[4-({5-[2-(dimethylamino)-1-methylethyl]-1-methyl-3-oxo-2-phenyl-2,3-dihydro-1H-pyrazol-4-yl}amino)-2,2-dimethyl-4-oxobutyl]-2-ethoxypyridine-3-carboxamide] | 180 nM | 470 nM
CCOc1cc(F)c(Cl)cc1C(=O)NCC(C)(C)CC(=O)Nc1c(CCCCN(C)C)n(C)n(-c2ccccc2)c1=O [Example 89, 5-Chloro-N-[4-({5-[4-(dimethylamino)butyl]-1-methyl-3-oxo-2-phenyl-2,3-dihydro-1H-pyrazol-4-yl}amino)-2,2-dimethyl-4-oxobutyl]-2-ethoxy-4-fluorobenzamide] | 90 nM | 170 nM
CCOc1ncc(Cl)cc1C(=O)NCC(C)(C)CC(=O)Nc1c(C(C)CNC)n(C)n(-c2ccccc2)c1=O (centres unmarked) [Example 77, 5-Chloro-N-[2,2-dimethyl-4-({1-methyl-5-[1-methyl-2-(methylamino)ethyl]-3-oxo-2-phenyl-2,3-dihydro-1H-pyrazol-4-yl}amino)-4-oxobutyl]-2-ethoxypyridine-3-carboxamide] | 92 nM | 800 nM
CCOc1ncc(Cl)cc1C(=O)NCC(C)(C)CC(=O)Nc1c(CC(C)(C)N(C)C)n(C)n(-c2ccccc2)c1=O [Example 57, 5-Chloro-N-[4-({5-[2-(dimethylamino)-2-methylpropyl]-1-methyl-3-oxo-2-phenyl-2,3-dihydro-1H-pyrazol-4-yl}amino)-2,2-dimethyl-4-oxobutyl]-2-ethoxypyridine-3-carboxamide] | 70 nM | 190 nM
CCOc1ccc(Cl)cc1C(=O)NCC(C)(C)CC(=O)Nc1c(C(C)(C)CN(C)C)n(C)n(-c2ccccc2)c1=O [Example 84, 5-Chloro-N-[4-({5-[2-(dimethylamino)-1,1-dimethylethyl]-1-methyl-3-oxo-2-phenyl-2,3-dihydro-1H-pyrazol-4-yl}amino)-2,2-dimethyl-4-oxobutyl]-2-ethoxybenzamide] | 80 nM | 170 nM
CCOc1ncc(Cl)cc1C(=O)NCC(C)(C)CC(=O)Nc1c(C(CN(C)C)OC)n(C)n(-c2ccccc2)c1=O (single isomer, unassigned; (-)) [Example 82, (−)-5-Chloro-N-[4-({5-[2-(dimethylamino)-1-methoxyethyl]-1-methyl-3-oxo-2-phenyl-2,3-dihydro-1H-pyrazol-4-yl}amino)-2,2-dimethyl-4-oxobutyl]-2-ethoxypyridine-3-carboxamide] | 49 nM | 370 nM
CCOc1cc(F)c(Cl)cc1C(=O)NCC(C)(C)CC(=O)Nc1c(CCN(C)C)n(CC)n(-c2ccccc2)c1=O [Example 41, 5-Chloro-N-[4-({5-[2-(dimethylamino)ethyl]-1-ethyl-3-oxo-2-phenyl-2,3-dihydro-1H-pyrazol-4-yl}amino)-2,2-dimethyl-4-oxobutyl]-2-ethoxy-4-fluorobenzamide] | 20 nM | 98 nM
CCc1c(NC(=O)CC(C)(C)CNC(=O)c2cc(Cl)ccc2OCOC)c(=O)n(-c2ccccc2)n1C [Example 127, 5-Chloro-N-{4-[(5-ethyl-1-methyl-3-oxo-2-phenyl-2,3-dihydro-1H-pyrazol-4-yl)amino]-2,2-dimethyl-4-oxobutyl}-2-(methoxymethoxy)benzamide] | 55 nM | 130 nM
CCOc1cc(F)c(Cl)cc1C(=O)NCC(C)(C)CC(=O)Nc1c([C@H](C)OC)n(C)n(-c2ccccc2)c1=O [Example 123, 5-Chloro-2-ethoxy-4-fluoro-N-(4-{[5-((1S)-methoxyethyl)-1-methyl-3-oxo-2-phenyl-2,3-dihydro-1H-pyrazol-4-yl]amino}-2,2-dimethyl-4-oxobutyl)benzamide] | 39 nM | 120 nM
CNCC(C)c1c(NC(=O)CC(C)(C)CNC(=O)c2cc(Cl)cc3cc(C)oc23)c(=O)n(-c2ccccc2)n1C (centres unmarked) [Example 78, 5-Chloro-N-[2,2-dimethyl-4-({1-methyl-5-[1-methyl-2-(methylamino)ethyl]-3-oxo-2-phenyl-2,3-dihydro-1H-pyrazol-4-yl}amino)-4-oxobutyl]-2-methylbenzofuran-7-carboxamide] | 70 nM | 480 nM
CCOc1cc(F)c(Cl)cc1C(=O)NCC(C)(C)CC(=O)Nc1c(C[C@@H](C)N(C)C)n(C)n(-c2ccccc2)c1=O [Example 49, 5-Chloro-N-[4-({5-[(2R)-2-(dimethylamino)propyl]-1-methyl-3-oxo-2-phenyl-2,3-dihydro-1H-pyrazol-4-yl}amino)-2,2-dimethyl-4-oxobutyl]-2-ethoxy-4-fluorobenzamide] | 69 nM | 160 nM
CCOc1ccc(Cl)cc1C(=O)NCC(C)(C)CC(=O)Nc1c(C(C)C(C)(C)N(C)C)n(C)n(-c2ccccc2)c1=O (centres unmarked) [Example 87, 5-Chloro-N-[4-({5-[2-(dimethylamino)-1,2-dimethylpropyl]-1-methyl-3-oxo-2-phenyl-2,3-dihydro-1H-pyrazol-4-yl}amino)-2,2-dimethyl-4-oxobutyl]-2-ethoxybenzamide] | 52 nM | 120 nM
CCOc1cc(F)c(Cl)cc1C(=O)NCC(C)(C)CC(=O)Nc1c([C@H](C)CN(C)C)n(C)n(-c2ccccc2)c1=O [Example 70, 5-Chloro-N-[4-({5-[(1R)-2-(dimethylamino)-1-methylethyl]-1-methyl-3-oxo-2-phenyl-2,3-dihydro-1H-pyrazol-4-yl}amino)-2,2-dimethyl-4-oxobutyl]-2-ethoxy-4-fluorobenzamide] | 84 nM | 160 nM
CCOc1cc(F)c(Cl)cc1C(=O)NCC(C)(C)CC(=O)Nc1c(C(CN(C)C)OC)n(C)n(-c2ccccc2)c1=O (centres unmarked) [Example 80, 5-Chloro-N-[4-({5-[2-(dimethylamino)-1-methoxyethyl]-1-methyl-3-oxo-2-phenyl-2,3-dihydro-1H-pyrazol-4-yl}amino)-2,2-dimethyl-4-oxobutyl]-2-ethoxy-4-fluorobenzamide] | 140 nM | 170 nM
CCOc1ccc(Cl)cc1C(=O)NCC(C)(C)CC(=O)Nc1c(C[C@@H](C)N(C)C)n(C)n(-c2ccccc2)c1=O [Example 48, 5-Chloro-N-[4-({5-[(2R)-2-(dimethylamino)propyl]-1-methyl-3-oxo-2-phenyl-2,3-dihydro-1H-pyrazol-4-yl}amino)-2,2-dimethyl-4-oxobutyl]-2-ethoxybenzamide] | 61 nM | 160 nM
CCOc1ccc(Cl)cc1C(=O)NCC(C)(C)CC(=O)Nc1c(CC(N)=O)n(C)n(-c2ccccc2)c1=O [Example 132, N-(4-{[5-(2-Amino-2-oxoethyl)-1-methyl-3-oxo-2-phenyl-2,3-dihydro-1H-pyrazol-4-yl]amino}-2,2-dimethyl-4-oxobutyl)-5-chloro-2-ethoxybenzamide] | 100 nM | 120 nM
Cc1cc2cc(Cl)cc(C(=O)NCC(C)(C)CC(=O)Nc3c(CCCCN(C)C)n(C)n(-c4ccccc4)c3=O)c2o1 [Example 90, 5-Chloro-N-[4-({5-[4-(dimethylamino)butyl]-1-methyl-3-oxo-2-phenyl-2,3-dihydro-1H-pyrazol-4-yl}amino)-2,2-dimethyl-4-oxobutyl]-2-methylbenzofuran-7-carboxamide] | 28 nM | 140 nM
CCOc1ncc(Cl)cc1C(=O)NCC(C)(C)CC(=O)Nc1c(C(CN(C)C)OC)n(C)n(-c2ccccc2)c1=O (centres unmarked) [Example 81, 5-Chloro-N-[4-({5-[2-(dimethylamino)-1-methoxyethyl]-1-methyl-3-oxo-2-phenyl-2,3-dihydro-1H-pyrazol-4-yl}amino)-2,2-dimethyl-4-oxobutyl]-2-ethoxypyridine-3-carboxamide] | 210 nM | 410 nM
COCOc1ccc(Cl)cc1C(=O)NCC(C)(C)CC(=O)Nc1c(COC)n(C)n(-c2ccccc2)c1=O [Example 115, 5-Chloro-2-(methoxymethoxy)-N-(4-{[5-(methoxymethyl)-1-methyl-3-oxo-2-phenyl-2,3-dihydro-1H-pyrazol-4-yl]amino}-2,2-dimethyl-4-oxobutyl)benzamide] | 41 nM | 130 nM
CCOc1ccc(Cl)cc1C(=O)NCC(C)(C)CC(=O)Nc1c(CCN(C)CCF)n(C)n(-c2ccccc2)c1=O [Example 36, 5-Chloro-2-ethoxy-N-{4-[(5-{2-[2-fluoroethyl(methyl)amino]ethyl}-1-methyl-3-oxo-2-phenyl-2,3-dihydro-1H-pyrazol-4-yl)amino]-2,2-dimethyl-4-oxobutyl}benzamide] | 24 nM | 120 nM
Cc1cc2cc(Cl)cc(C(=O)NCC(C)(C)CC(=O)Nc3c(CCCN(C)C)n(C)n(-c4ccccc4)c3=O)c2o1 [Example 65, 5-Chloro-N-[4-({5-[3-(dimethylamino)propyl]-1-methyl-3-oxo-2-phenyl-2,3-dihydro-1H-pyrazol-4-yl}amino)-2,2-dimethyl-4-oxobutyl]-2-methylbenzofuran-7-carboxamide] | 44 nM | 200 nM
CCOc1ncc(Br)cc1C(=O)NCC(C)(C)CC(=O)Nc1c(CC(C)(C)NC)n(C)n(-c2ccccc2)c1=O [Example 60, 5-Bromo-N-[2,2-dimethyl-4-({1-methyl-5-[2-methyl-2-(methylamino)propyl]-3-oxo-2-phenyl-2,3-dihydro-1H-pyrazol-4-yl}amino)-4-oxobutyl]-2-ethoxypyridine-3-carboxamide] | 94 nM | 370 nM
